Assay results as given in the NIST ThermoML archive (doi:10.1021/je700580g).
Numbers after ± are expanded uncertainties.

Legend:
[1] = 101.33 kPa, Liquid
[2] = refractive index (Na D-line) (dimensionless); conditions: 101.33 kPa, Liquid, Standard Abbe refractometry
[3] = xn = mol fraction of the nth substance listed; conditions: 101 kPa, Liquid

OCCO [1,2-ethanediol]
Conditions	mass density, 293.15 K [kg/m3]	mass density, 303.15 K [kg/m3]	mass density, 313.15 K [kg/m3]	refractive index, 293.15 K	refractive index, 298.15 K
[1]	1113.37 ± 0.37	1106.4 ± 0.35	1099.35 ± 0.34	–	–
[2]	–	–	–	1.4323 ± 0.0005	1.4309 ± 0.0005

OCCO [1,2-ethanediol] + CCCCO
mass density [kg/m3], [3]
Conditions	x1 = 0.08923	x1 = 0.249	x1 = 0.3206	x1 = 0.4019	x1 = 0.5347	x1 = 0.6571	x1 = 0.6974	x1 = 0.7753	x1 = 0.81	x1 = 0.9121
293.15 K	826.85 ± 0.63	861.02 ± 0.55	878.11 ± 0.51	898.74 ± 0.46	936.02 ± 0.38	975.06 ± 0.29	989.14 ± 0.26	1017.69 ± 0.28	1030.76 ± 0.31	1073.19 ± 0.42
298.15 K	823.02 ± 0.64	857.21 ± 0.56	874.25 ± 0.52	894.96 ± 0.47	932.22 ± 0.39	971.34 ± 0.3	985.27 ± 0.27	1013.86 ± 0.27	1027.06 ± 0.3	1069.67 ± 0.41
303.15 K	819.29 ± 0.64	853.42 ± 0.57	870.64 ± 0.53	891.24 ± 0.48	928.63 ± 0.4	967.77 ± 0.31	981.88 ± 0.28	1010.51 ± 0.26	1023.76 ± 0.3	1066.15 ± 0.4
308.15 K	815.49 ± 0.65	849.65 ± 0.57	866.86 ± 0.54	887.45 ± 0.49	924.91 ± 0.41	964.18 ± 0.32	978.14 ± 0.29	1006.95 ± 0.26	1020.29 ± 0.29	1062.56 ± 0.39
313.15 K	811.51 ± 0.66	845.69 ± 0.58	862.94 ± 0.54	883.57 ± 0.5	921.05 ± 0.41	960.49 ± 0.33	974.54 ± 0.29	1003.28 ± 0.25	1016.76 ± 0.28	1059.01 ± 0.38

CCCCO [butan-1-ol]
Conditions	mass density, 293.15 K [kg/m3]	mass density, 298.15 K [kg/m3]	mass density, 303.15 K [kg/m3]	mass density, 308.15 K [kg/m3]	mass density, 313.15 K [kg/m3]	refractive index, 293.15 K	refractive index, 298.15 K
[1]	809.6 ± 0.46	805.84 ± 0.47	802.04 ± 0.47	798.2 ± 0.48	794.31 ± 0.48	–	–
[2]	–	–	–	–	–	1.3997 ± 0.0006	1.3978 ± 0.0006

CCCCCCO [hexan-1-ol]
Conditions	mass density, 293.15 K [kg/m3]	mass density, 298.15 K [kg/m3]	mass density, 303.15 K [kg/m3]	mass density, 308.15 K [kg/m3]	mass density, 313.15 K [kg/m3]	refractive index, 293.15 K	refractive index, 298.15 K
[1]	818.74 ± 1.4	815.28 ± 1.4	811.71 ± 1.4	808.13 ± 1.4	804.53 ± 1.4	–	–
[2]	–	–	–	–	–	1.4183 ± 0.0007	1.4161 ± 0.0007

CCCCCCO [hexan-1-ol] + OCCO
mass density [kg/m3], [3]
Conditions	x2 = 0.08275	x2 = 0.1585	x2 = 0.2374	x2 = 0.3265	x2 = 0.4905	x2 = 0.5445	x2 = 0.5965	x2 = 0.6932	x2 = 0.7757	x2 = 0.9053
293.15 K	829.72 ± 1.1	840.78 ± 1	853.56 ± 0.92	869.87 ± 0.84	905.8 ± 0.67	919.79 ± 0.61	934.39 ± 0.55	965.41 ± 0.44	996.6 ± 0.33	1057.08 ± 0.41
298.15 K	826.21 ± 1.1	837.17 ± 1	849.99 ± 0.93	866.29 ± 0.84	902.2 ± 0.67	916.19 ± 0.62	930.83 ± 0.56	961.84 ± 0.45	993.11 ± 0.34	1053.67 ± 0.4
303.15 K	822.63 ± 1.1	833.58 ± 1	846.39 ± 0.93	862.69 ± 0.85	898.58 ± 0.68	912.56 ± 0.62	927.24 ± 0.57	958.23 ± 0.45	989.49 ± 0.35	1050.1 ± 0.4
308.15 K	819.02 ± 1.1	829.96 ± 1	842.67 ± 0.94	859.01 ± 0.85	894.88 ± 0.69	908.9 ± 0.63	923.53 ± 0.57	954.54 ± 0.46	985.79 ± 0.36	1046.52 ± 0.39
313.15 K	815.44 ± 1.1	826.33 ± 1	839.04 ± 0.94	855.36 ± 0.86	891.27 ± 0.69	905.23 ± 0.64	919.95 ± 0.58	950.95 ± 0.47	982.18 ± 0.36	1042.98 ± 0.38

CCCCCCCCO [octan-1-ol]
Conditions	mass density, 293.15 K [kg/m3]	mass density, 298.15 K [kg/m3]	mass density, 303.15 K [kg/m3]	mass density, 308.15 K [kg/m3]	mass density, 313.15 K [kg/m3]	refractive index, 293.15 K	refractive index, 298.15 K
[1]	825.12 ± 0.74	821.75 ± 0.75	818.31 ± 0.75	814.8 ± 0.76	811.41 ± 0.77	–	–
[2]	–	–	–	–	–	1.4298 ± 0.0006	1.428 ± 0.0006

CCCCCCCCO [octan-1-ol] + OCCO
mass density [kg/m3], [3]
Conditions	x2 = 0.07997	x2 = 0.159	x2 = 0.2159	x2 = 0.36	x2 = 0.4825	x2 = 0.5912	x2 = 0.6299	x2 = 0.7437	x2 = 0.8063	x2 = 0.8892
293.15 K	833.01 ± 0.7	842 ± 0.68	849.21 ± 0.65	870.86 ± 0.59	894.13 ± 0.53	920.03 ± 0.46	930.8 ± 0.43	968.64 ± 0.33	994.57 ± 0.27	1036.57 ± 0.34
298.15 K	829.64 ± 0.71	838.63 ± 0.68	845.74 ± 0.66	867.38 ± 0.6	890.64 ± 0.53	916.52 ± 0.46	927.19 ± 0.44	965.11 ± 0.34	991.03 ± 0.28	1033.02 ± 0.33
303.15 K	826.15 ± 0.72	835.13 ± 0.69	842.24 ± 0.67	863.92 ± 0.6	887.11 ± 0.54	912.94 ± 0.47	923.7 ± 0.45	961.5 ± 0.35	987.45 ± 0.29	1029.52 ± 0.32
308.15 K	822.68 ± 0.73	831.61 ± 0.7	838.76 ± 0.68	860.33 ± 0.61	883.47 ± 0.55	909.33 ± 0.48	920.08 ± 0.45	957.92 ± 0.36	983.8 ± 0.3	1025.99 ± 0.32
313.15 K	819.15 ± 0.73	828.07 ± 0.7	835.18 ± 0.68	856.83 ± 0.62	879.91 ± 0.56	905.71 ± 0.49	916.5 ± 0.46	954.32 ± 0.37	980.25 ± 0.3	1022.37 ± 0.31
